Where two headings read alike, the source gives them in different places.
Columns and labels:
NNRTI-resistant viruses = experiment: Cytopathic antiviral assay in MT-2 cells, NNRTI-resistant viruses; assay type: cell-based, HIV-1; conditions: Mutant/WT (HXB2D) EC50 ratio, mean ± s.d. of three experiments
Description: (§1) The antiviral activity of the compound of Formula (a) was tested against a panel of known HIV-1 mutants resistant to HIV PIs (ATV and DRV), NRTIs (TFV and FTC), NNRTIs (RPV and EFV) or INSTIs (RAL, EVG and DTG) using a cytopathic antiviral assay in MT-2 cells. The compound of Formula (Ia) was fully active against all tested mutants resistant to PIs (Table 11), NRTIs (Table 12), NNRTIs (Table 13) or INSTIs (Table 14).

WT HXB2D = experiment: Cytopathic antiviral assay in MT-2 cells, wild type HXB2D; assay type: cell-based, HIV-1; conditions: Human immunodeficiency virus 1, MT2, read-out: WT HXB2D EC50, MT-2 cells, mean ± s.d. of three experiments in triplicate
Description: as §1

INSTI-resistant viruses = experiment: Cytopathic antiviral assay in MT-2 cells, INSTI-resistant viruses; assay type: cell-based, HIV-1; conditions: Mutant/WT (HXB2D) EC50 ratio, mean ± s.d. of three experiments
Description: as §1

PI-resistant viruses = experiment: Cytopathic antiviral assay in MT-2 cells, PI-resistant viruses; assay type: cell-based, HIV-1; conditions: Mutant/WT (HXB2D) EC50 ratio, mean ± s.d. of three experiments
Description: as §1

HIV-1 clinical isolates = experiment: Antiviral activity against HIV-1 clinical isolates in PHA-stimulated human PBMCs; assay type: cell-based
Description: (§2) The antiretroviral activity of the compound of Formula (Ia) was tested against a panel of 22 HIV-1 clinical isolates of HIV-1 and two HIV-2 isolates in freshly isolated, PHA-stimulated human peripheral blood mononuclear cells (PBMCs). The HIV-1 isolates included representative strains from subtypes A, B, C, D, E, F, G, N, O, AE, and AG. Following a 7-day infection, virus production was determined by measuring reverse transcriptase activity in cell-free culture supernatants.

HIV-2 isolates = experiment: Antiviral activity against HIV-2 isolates in PHA-stimulated human PBMCs; assay type: cell-based; conditions: Human immunodeficiency virus 2, PBMC, 168 h, 7-day infection, RT activity readout, mean of triplicate
Description: as §2

[1] = INSTI-resistance panel (Table 14)

Q: With O=C1Nc2ccc(Cl)cc2[C@@](C#CC2CC2)(C(F)(F)F)O1 [EFV, efavirenz] as the molecule, how does the “EC50 Fold-Change” value (NNRTI-resistant viruses; K103N) read?
A: 14.2 ± 2.7

Q: And the “EC50 Fold-Change” value (NNRTI-resistant viruses; K103N/Y181C)?
A: >22.4

Q: What about the “EC50 Fold-Change” value (NNRTI-resistant viruses; L100I/K103N) of the same molecule?
A: >22.4

Q: What about the “EC50 Fold-Change” value (NNRTI-resistant viruses; Y181C) of the same molecule?
A: 3.3 ± 2.5

Q: And the “EC50 Fold-Change” value (NNRTI-resistant viruses; Y188L)?
A: >22.4

Q: What about the EC50 (WT HXB2D; [1]) of the same molecule?
A: 1.37 ± 0.51 nM

Q: And the EC50 (WT HXB2D; NNRTI-resistance panel (Table 13))?
A: 2.23 ± 0.18 nM

Q: And the EC50 (WT HXB2D; PI-resistance panel (Table 11))?
A: 1.64 ± 0.55 nM

Q: And the “EC50 Fold-Change” value (INSTI-resistant viruses; E92Q/N155H)?
A: 1.2 ± 0.6

Q: And the “EC50 Fold-Change” value (INSTI-resistant viruses; E138K/Q148K)?
A: 0.7 ± 0.3

Q: What about the “EC50 Fold-Change” value (INSTI-resistant viruses; G140S/Q148R) of the same molecule?
A: 1.0 ± 0.3

Q: And the “EC50 Fold-Change” value (INSTI-resistant viruses; N155H/Q148R)?
A: 1.1 ± 0.5

Q: What about the “EC50 Fold-Change” value (INSTI-resistant viruses; R263K/M50I) of the same molecule?
A: 1.3 ± 0.9

Q: What about the “EC50 Fold-Change” value (INSTI-resistant viruses; Y143R) of the same molecule?
A: 0.9 ± 0.6

Q: What about the “EC50 Fold-Change” value (PI-resistant viruses; G48V/V82A/L90M) of the same molecule?
A: 0.9 ± 0.4

Q: And the “EC50 Fold-Change” value (PI-resistant viruses; G48V/V82S)?
A: 0.7 ± 0.1

Q: What about the “EC50 Fold-Change” value (PI-resistant viruses; I50V) of the same molecule?
A: 3.0 ± 0.9

Q: And the “EC50 Fold-Change” value (PI-resistant viruses; I84V/L90M)?
A: 0.4 ± 0.1

Q: Which EC50 (HIV-1 clinical isolates; Human immunodeficiency virus 1, BAL, PBMC, 168 h, read-out: EC50 in human PBMCs, HIV-1 subtype B isolate Ba-L, 7-day infection, RT activity readout, mean of triplicate) does the source give for C[C@@H]1CCO[C@H]2Cn3cc(C(=O)NCc4ccc(F)cc4F)c(=O)c(O)c3C(=O)N12 [DTG, dolutegravir] here?
A: 0.4 nM

Q: And the EC50 (HIV-1 clinical isolates; Human immunodeficiency virus 1, PBMC, 168 h, read-out: EC50 in human PBMCs, HIV-1 CRF01_AE isolate 90TH_CM235, 7-day infection, RT activity readout, mean of triplicate)?
A: 1.02 nM

Q: What about the EC50 (HIV-1 clinical isolates; Human immunodeficiency virus 1, PBMC, 168 h, read-out: EC50 in human PBMCs, HIV-1 CRF02_AG isolate 01CM0008BBY, 7-day infection, RT activity readout, mean of triplicate) of the same molecule?
A: 1.04 nM

Q: And the EC50 (HIV-1 clinical isolates; Human immunodeficiency virus 1, PBMC, 168 h, read-out: EC50 in human PBMCs, HIV-1 CRF02_AG isolate 91DJ263, 7-day infection, RT activity readout, mean of triplicate)?
A: 0.45 nM

Q: And the EC50 (HIV-1 clinical isolates; Human immunodeficiency virus 1, PBMC, 168 h, read-out: EC50 in human PBMCs, HIV-1 Group N isolate YBF30, 7-day infection, RT activity readout, mean of triplicate)?
A: 0.54 nM

Q: What about the EC50 (HIV-1 clinical isolates; Human immunodeficiency virus 1, PBMC, 168 h, read-out: EC50 in human PBMCs, HIV-1 Group O isolate BCF01, 7-day infection, RT activity readout, mean of triplicate) of the same molecule?
A: 0.64 nM

Q: What about the EC50 (HIV-1 clinical isolates; Human immunodeficiency virus 1, PBMC, 168 h, read-out: EC50 in human PBMCs, HIV-1 subtype A isolate 92UG031, 7-day infection, RT activity readout, mean of triplicate) of the same molecule?
A: 0.63 nM

Q: And the EC50 (HIV-1 clinical isolates; Human immunodeficiency virus 1, PBMC, 168 h, read-out: EC50 in human PBMCs, HIV-1 subtype A isolate 92UG037, 7-day infection, RT activity readout, mean of triplicate)?
A: 0.47 nM

Q: And the EC50 (HIV-1 clinical isolates; Human immunodeficiency virus 1, PBMC, 168 h, read-out: EC50 in human PBMCs, HIV-1 subtype B isolate 89BZ_167, 7-day infection, RT activity readout, mean of triplicate)?
A: 1.18 nM

Q: What about the EC50 (HIV-1 clinical isolates; Human immunodeficiency virus 1, PBMC, 168 h, read-out: EC50 in human PBMCs, HIV-1 subtype B isolate 90US_873, 7-day infection, RT activity readout, mean of triplicate) of the same molecule?
A: 0.82 nM

Q: What about the EC50 (HIV-1 clinical isolates; Human immunodeficiency virus 1, PBMC, 168 h, read-out: EC50 in human PBMCs, HIV-1 subtype B isolate 91US001, 7-day infection, RT activity readout, mean of triplicate) of the same molecule?
A: 0.53 nM

Q: And the EC50 (HIV-1 clinical isolates; Human immunodeficiency virus 1, PBMC, 168 h, read-out: EC50 in human PBMCs, HIV-1 subtype B isolate 91US004, 7-day infection, RT activity readout, mean of triplicate)?
A: 0.4 nM

Q: What about the EC50 (HIV-1 clinical isolates; Human immunodeficiency virus 1, PBMC, 168 h, read-out: EC50 in human PBMCs, HIV-1 subtype B isolate 96TH_NP1538, 7-day infection, RT activity readout, mean of triplicate) of the same molecule?
A: 0.4 nM

Q: And the EC50 (HIV-1 clinical isolates; Human immunodeficiency virus 1, PBMC, 168 h, read-out: EC50 in human PBMCs, HIV-1 subtype B isolate JR-CSF, 7-day infection, RT activity readout, mean of triplicate)?
A: 0.41 nM

Q: And the EC50 (HIV-1 clinical isolates; Human immunodeficiency virus 1, PBMC, 168 h, read-out: EC50 in human PBMCs, HIV-1 subtype C isolate 92BR025, 7-day infection, RT activity readout, mean of triplicate)?
A: 0.91 nM

Q: What about the EC50 (HIV-1 clinical isolates; Human immunodeficiency virus 1, PBMC, 168 h, read-out: EC50 in human PBMCs, HIV-1 subtype C isolate 98US_MSC5016, 7-day infection, RT activity readout, mean of triplicate) of the same molecule?
A: 0.77 nM

Q: And the EC50 (HIV-1 clinical isolates; Human immunodeficiency virus 1, PBMC, 168 h, read-out: EC50 in human PBMCs, HIV-1 subtype D isolate 92UG001, 7-day infection, RT activity readout, mean of triplicate)?
A: 1.09 nM

Q: What about the EC50 (HIV-1 clinical isolates; Human immunodeficiency virus 1, PBMC, 168 h, read-out: EC50 in human PBMCs, HIV-1 subtype D isolate 98UG_57128, 7-day infection, RT activity readout, mean of triplicate) of the same molecule?
A: 0.7 nM

Q: What about the EC50 (HIV-1 clinical isolates; Human immunodeficiency virus 1, PBMC, 168 h, read-out: EC50 in human PBMCs, HIV-1 subtype E isolate CMU02, 7-day infection, RT activity readout, mean of triplicate) of the same molecule?
A: 0.81 nM

Q: And the EC50 (HIV-1 clinical isolates; Human immunodeficiency virus 1, PBMC, 168 h, read-out: EC50 in human PBMCs, HIV-1 subtype E isolate CMU08, 7-day infection, RT activity readout, mean of triplicate)?
A: 0.96 nM

Q: What about the EC50 (HIV-1 clinical isolates; Human immunodeficiency virus 1, PBMC, 168 h, read-out: EC50 in human PBMCs, HIV-1 subtype F isolate 93BR020, 7-day infection, RT activity readout, mean of triplicate) of the same molecule?
A: 0.38 nM

Q: What about the EC50 (HIV-1 clinical isolates; Human immunodeficiency virus 1, PBMC, 168 h, read-out: EC50 in human PBMCs, HIV-1 subtype G isolate JV1083, 7-day infection, RT activity readout, mean of triplicate) of the same molecule?
A: 0.93 nM

Q: And the EC50 (HIV-1 clinical isolates; Human immunodeficiency virus 1, PBMC, read-out: HIV-1 EC50 Mean ± s.d., mean over the 22 HIV-1 clinical isolates, human PBMCs)?
A: 0.7 ± 0.26 nM

Q: What about the EC50 (HIV-1 clinical isolates; Human immunodeficiency virus 1, PBMC, read-out: HIV-1 EC50 Median, median over the 22 HIV-1 clinical isolates, human PBMCs) of the same molecule?
A: 0.67 nM

Q: And the EC50 (HIV-1 clinical isolates; Human immunodeficiency virus 1, PBMC, read-out: HIV-1 EC50 Range, range over the 22 HIV-1 clinical isolates, human PBMCs)?
A: 0.38 to 1.18 nM

Q: What about the EC50 (WT HXB2D; [1]) of the same molecule?
A: 2.24 ± 0.46 nM

Q: And the “EC50 Fold-Change” value (INSTI-resistant viruses; E92Q/N155H)?
A: 3.0 ± 1.1

Q: What about the “EC50 Fold-Change” value (INSTI-resistant viruses; E138K/Q148K) of the same molecule?
A: 7.3 ± 4.1

Q: And the “EC50 Fold-Change” value (INSTI-resistant viruses; G140S/Q148R)?
A: 6.9 ± 3.1

Q: And the “EC50 Fold-Change” value (INSTI-resistant viruses; N155H/Q148R)?
A: 1.5 ± 0.6

Q: And the “EC50 Fold-Change” value (INSTI-resistant viruses; R263K/M50I)?
A: 2.8 ± 2.1

Q: What about the “EC50 Fold-Change” value (INSTI-resistant viruses; Y143R) of the same molecule?
A: 0.8 ± 0.3

Q: What about the EC50 (HIV-2 isolates; HIV-2 isolate CBL-20) of the same molecule?
A: 0.36 nM

Q: What about the EC50 (HIV-2 isolates; HIV-2 isolate CDC310319) of the same molecule?
A: 1.81 nM

Q: How did the EC50 (WT HXB2D; [1]) turn out when Cc1nnc(C(=O)NC(C)(C)c2nc(C(=O)NCc3ccc(F)cc3)c(O)c(=O)n2C)o1 [RAL, raltegravir] was run?
A: 6.41 ± 2.15 nM

Q: And the “EC50 Fold-Change” value (INSTI-resistant viruses; E92Q/N155H)?
A: >15.6

Q: And the “EC50 Fold-Change” value (INSTI-resistant viruses; E138K/Q148K)?
A: >15.6

Q: And the “EC50 Fold-Change” value (INSTI-resistant viruses; G140S/Q148R)?
A: >15.6

Q: What about the “EC50 Fold-Change” value (INSTI-resistant viruses; N155H/Q148R) of the same molecule?
A: 13.9 ± 2.2

Q: What about the “EC50 Fold-Change” value (INSTI-resistant viruses; R263K/M50I) of the same molecule?
A: 1.6 ± 1.2

Q: And the “EC50 Fold-Change” value (INSTI-resistant viruses; Y143R)?
A: 10.1 ± 1.2
